This is an account of results in patent US10294229B2, “Heteroaryl substituted aminopyridine compounds” (BRISTOL-MYERS SQUIBB COMPANY, priority 2015, dated 2019).

In experiment [1] the test system is Human whole blood stimulated with a TLR2 agonist (lipoteichoic acid), IL-6 levels. Description: IRAK4 Whole Blood Assay. It is filed as cell-based. To be noted: Homo sapiens, lipoteichoic acid 10 μg/mL. In short, it runs like this: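 IL-6 was quantified by cytometric bead assay in supernatants of human blood (ACD-A) stimulated for 5 h with lipoteichoic acid at 10 μg/mL final. Compound exposure preceded stimulation for 60 min at 37 °C, 5% CO2.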

The target in experiment [2] is IRAK4 (Homo sapiens (Human), UniProt Q9NWZ3). Briefly: IRAK4 Inhibition Assay. To be noted: ATP 500 μM; IRAK4 0.6 nM. The class given is biochemical. Summed up: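 Mobility-shift kinase assay: 0.6 nM IRAK4, 500 μM ATP, 1.5 μM fluorescent peptide, 60 min, room temperature. Percent inhibition was normalised between enzyme-free and DMSO-only wells.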
IRAK4, sequence (Q9NWZ3 whole entry, species assumed): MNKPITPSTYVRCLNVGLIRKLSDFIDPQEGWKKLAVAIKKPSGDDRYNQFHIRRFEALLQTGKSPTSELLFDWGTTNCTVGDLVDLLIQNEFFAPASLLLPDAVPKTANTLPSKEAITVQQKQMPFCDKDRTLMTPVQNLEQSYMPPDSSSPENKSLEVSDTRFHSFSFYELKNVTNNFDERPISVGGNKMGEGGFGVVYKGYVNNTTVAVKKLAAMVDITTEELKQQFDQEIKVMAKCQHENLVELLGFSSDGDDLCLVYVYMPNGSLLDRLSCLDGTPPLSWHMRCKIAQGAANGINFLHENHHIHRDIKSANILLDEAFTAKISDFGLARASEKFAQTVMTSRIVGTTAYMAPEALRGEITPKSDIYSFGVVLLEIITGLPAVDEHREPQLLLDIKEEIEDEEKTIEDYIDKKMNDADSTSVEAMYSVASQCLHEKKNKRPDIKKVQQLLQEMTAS

Each structure is given as a SMILES string.

Usually EC50 stands for the concentration giving half of the maximal effect. A high value points to weaker potency. A word on the IC50: it is the midpoint of a concentration-inhibition curve. In experiment [1], `CC(C)Nc1cc(-n2ncc3cc(C#N)cnc32)ncc1-c1cn(CC(O)C(C)C)nn1` (stereo not shown) [Example 135, 1-(5-(1-(2-hydroxy-3-methylbutyl)-1H-1,2,3-triazol-4-yl)-4-(isopropylamino)pyridin-2-yl)-1H-pyrazolo[3,4-b]pyridine-5-carbonitrile] had an EC50 of 1190 nM. Also, the IC50 in experiment [2] is 4 nM.
`CC(C)Nc1cc(-n2ncc3cc(C#N)cnc32)ncc1-c1cn(-c2ccccc2F)nn1` [Example 20, 1-(5-(1-(2-fluorophenyl)-1H-1,2,3-triazol-4-yl)-4-(isopropylamino)pyridin-2-yl)-1H-pyrazolo [3,4-b]pyridine-5-carbonitrile] registered an EC50 in experiment [1] of 20000 nM. In addition, the IC50 in experiment [2] was determined as 7 nM.
Regarding `CC(C)Nc1cc(-n2ncc3cc(C#N)cnc32)ncc1-c1cn(CCCCCO)nn1` [Example 125, 1-(5-(1-(5-hydroxypentyl)-1H-1,2,3-triazol-4-yl)-4-(isopropylamino)pyridin-2-yl)-1H-pyrazolo[3,4-b]pyridine-5-carbonitrile], in experiment [1], the EC50 was determined as 1760 nM. Also, in experiment [2], the IC50 amounted to 3 nM.
As to `CC(C)Nc1cc(-n2ncc3cc(C#N)cnc32)ncc1-c1cn(CCCF)nn1` [Example 44, 1-(5-(1-(3-fluoropropyl)-1H-1,2,3-triazol-4-yl)-4-(isopropylamino)pyridin-2-yl)-1H-pyrazolo [3,4-b]pyridine-5-carbonitrile], in experiment [1], a half-maximal response (EC50) required 630 nM. Moreover, the IC50 in experiment [2] stood at 7 nM.
The matching figures for `CC(=O)N1CCN(C(=O)Cn2cc(-c3cnc(-n4ncc5cc(C#N)cnc54)cc3NC(C)C)nn2)CC1` [Example 194, 1-(5-(1-(2-(4-acetylpiperazin-1-yl)-2-oxoethyl)-1H-1,2,3-triazol-4-yl)-4-(isopropylamino)pyridin-2-yl)-1H-pyrazolo[3,4-b]pyridine-5-carbonitrile]: 620 nM and 6 nM.
As for `CC(C)Nc1cc(-n2ncc3cc(C#N)cnc32)ncc1-c1cn([C@@H]2CCN(S(C)(=O)=O)C[C@H]2O)nn1` (single isomer, unassigned) [Example 199], the EC50 in experiment [1] came to 550 nM. Besides, in experiment [2], the IC50 stood at 4 nM.
The matching figures for `CCCc1cn(-c2cnc(-n3ncc4cc(C#N)c(N)nc43)cc2NC2COC2)nn1` [Example 281, 6-amino-1-(4-(oxetan-3-ylamino)-5-(4-propyl-1H-1,2,3-triazol-1-yl)pyridin-2-yl)-1H-pyrazolo[3,4-b]pyridine-5-carbonitrile]: 380 nM and 7 nM.
For `COCC(O)Cn1cc(-c2cnc(-n3ncc4cc(C#N)cnc43)cc2NC(C)C)nn1` (stereo not shown) [Example 133, 1-(5-(1-(2-hydroxy-3-methoxypropyl)-1H-1,2,3-triazol-4-yl)-4-(isopropylamino)pyridin-2-yl)-1H-pyrazolo[3,4-b]pyridine-5-carbonitrile], in that order: 980 nM and 10 nM.
In the case of `CC(C)Nc1cc(-n2ncc3cc(C#N)cnc32)ncc1-c1cn(CCCCCN)nn1` [Example 114, 1-(5-(1-(5-aminopentyl)-1H-1,2,3-triazol-4-yl)-4-(isopropylamino)pyridin-2-yl)-1H-pyrazolo[3,4-b]pyridine-5-carbonitrile], in experiment [1], a half-maximal effect (EC50) was put at 870 nM. In addition, the IC50 in experiment [2] is 3 nM.
The matching figures for `CC(C)Nc1cc(-n2ncc3cc(C#N)cnc32)ncc1-c1cn(C2CN(C(=O)c3ccccc3)C2)nn1` [Example 143, 1-(5-(1-(1-benzoylazetidin-3-yl)-1H-1,2,3-triazol-4-yl)-4-(isopropylamino)pyridin-2-yl)-1H-pyrazolo[3,4-b]pyridine-5-carbonitrile]: 970 nM and 8 nM.
The matching figures for `COC(=O)NC1CCC(c2cn(-c3cnc(-n4ncc5cc(C#N)cnc54)cc3NC(C)C)nn2)CC1` (stereo not shown) [Example 344, methyl ((1s,4s)-4-(1-(6-(5-cyano-1H-pyrazolo[3,4-b]pyridin-1-yl)-4-(isopropylamino)pyridin-3-yl)-1H-1,2,3-triazol-4-yl)cyclohexyl)carbamate]: 650 nM and 3 nM.
